The numbers were not newly measured in patent US20190367449A1, “PHENYLCREATINE, ITS USE AND METHOD FOR ITS PRODUCTION” (priority 2017, published 2019), which cites them from elsewhere.

Structures are written as SMILES.

For this series the following is noted: in vivo; cited from earlier work.

Turning to `CN(CC(=O)O)C(=N)N.Cl` [creatine hydrochloride], the “Relative bioavailability, higher than of creatine monohydrate” value is on record as “about 50%”.
